From patent US12649750B2, “Macrocyclic compounds, compositions, and methods of using thereof” (Sionna Therapeutics Inc., priority 2022, dated 2026)
Each block holds one compound with its values, some of them ahead of it.

Tests used:
CFTR = molecular target: T1, CFTR (Homo sapiens, UniProt P13569, DEL508-508); experiment: TECC24 AUC fold over DMSO @10 μM, CFTR-mediated transepithelial chloride transport in CF-HBE cells; format: cell-based; settings: test agent AUC divided by DMSO vehicle AUC, primary CF-HBE cells, ΔF508 homozygous donor, 48 hours incubation
T1 construct: Primary human bronchial epithelial cells from a ΔF508 homozygous CF donor; host or cells: primary human bronchial epithelial cells (CF-HBE), ΔF508 homozygous donor
T1 sequence (P13569 with tags, fused parts or gaps DEL508-508): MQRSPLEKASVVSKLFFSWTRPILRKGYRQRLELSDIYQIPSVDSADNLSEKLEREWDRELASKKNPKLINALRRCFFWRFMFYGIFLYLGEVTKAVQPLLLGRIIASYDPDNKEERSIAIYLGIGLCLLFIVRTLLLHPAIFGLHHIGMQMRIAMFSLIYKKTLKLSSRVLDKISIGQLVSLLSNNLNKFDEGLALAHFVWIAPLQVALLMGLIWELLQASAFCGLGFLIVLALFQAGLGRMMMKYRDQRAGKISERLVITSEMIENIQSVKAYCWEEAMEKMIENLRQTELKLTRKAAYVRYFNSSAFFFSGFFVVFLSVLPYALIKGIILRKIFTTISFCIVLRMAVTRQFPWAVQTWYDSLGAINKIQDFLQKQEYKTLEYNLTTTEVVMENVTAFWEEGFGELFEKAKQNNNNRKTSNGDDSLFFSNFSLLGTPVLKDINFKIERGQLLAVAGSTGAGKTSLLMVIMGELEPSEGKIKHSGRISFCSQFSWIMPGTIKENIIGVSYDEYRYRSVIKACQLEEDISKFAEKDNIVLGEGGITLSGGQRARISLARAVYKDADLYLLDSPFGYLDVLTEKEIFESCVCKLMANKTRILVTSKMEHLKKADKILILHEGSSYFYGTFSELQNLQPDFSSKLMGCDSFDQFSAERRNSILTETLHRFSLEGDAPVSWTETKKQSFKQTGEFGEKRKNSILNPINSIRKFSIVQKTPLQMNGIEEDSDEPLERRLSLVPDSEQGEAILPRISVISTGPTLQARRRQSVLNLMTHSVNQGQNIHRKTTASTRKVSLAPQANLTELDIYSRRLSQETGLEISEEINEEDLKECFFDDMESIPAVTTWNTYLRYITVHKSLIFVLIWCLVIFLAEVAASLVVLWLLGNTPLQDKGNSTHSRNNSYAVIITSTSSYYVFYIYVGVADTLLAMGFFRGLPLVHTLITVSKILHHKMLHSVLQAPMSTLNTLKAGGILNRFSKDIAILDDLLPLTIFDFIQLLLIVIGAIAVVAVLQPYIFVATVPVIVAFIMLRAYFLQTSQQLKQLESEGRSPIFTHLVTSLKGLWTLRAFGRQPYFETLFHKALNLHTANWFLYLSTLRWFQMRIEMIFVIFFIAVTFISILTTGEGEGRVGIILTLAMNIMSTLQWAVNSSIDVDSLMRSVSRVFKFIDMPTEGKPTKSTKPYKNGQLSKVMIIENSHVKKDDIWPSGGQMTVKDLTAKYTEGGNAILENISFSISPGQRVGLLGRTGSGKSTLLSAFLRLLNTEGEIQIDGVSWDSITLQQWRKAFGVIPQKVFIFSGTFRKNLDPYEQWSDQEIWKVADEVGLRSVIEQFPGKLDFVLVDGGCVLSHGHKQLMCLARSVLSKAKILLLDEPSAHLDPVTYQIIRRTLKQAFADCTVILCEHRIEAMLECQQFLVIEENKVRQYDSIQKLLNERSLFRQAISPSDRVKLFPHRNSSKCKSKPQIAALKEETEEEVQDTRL
How it was run: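 ΔF508-homozygous primary bronchial epithelial cells incubated 48 h at 36.5° C with compound (10 μM) in IL-13-containing medium, then TECC24 current-clamp recording in pH 7.4 Hepes saline with benzamil 10 μM, forskolin 10 μM, then CFTR inhibitor-172 20 μM. Equivalent Cl− current AUC between forskolin and inhibitor, expressed as fold over DMSO.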

NBD1 = molecular target: T2, NBD1 (Homo sapiens, UniProt P13569); experiment: Aggregation analysis using differential static light scattering (DSLS), thermal stability of NBD1 (ΔTagg); format: binding; settings: ΔTagg versus DMSO control, NBD1 0.2 mg/ml
T2 construct: Purified recombinant NBD1 was produced using previously described methods; made in house
T2 sequence (P13569 423-646 limits assumed): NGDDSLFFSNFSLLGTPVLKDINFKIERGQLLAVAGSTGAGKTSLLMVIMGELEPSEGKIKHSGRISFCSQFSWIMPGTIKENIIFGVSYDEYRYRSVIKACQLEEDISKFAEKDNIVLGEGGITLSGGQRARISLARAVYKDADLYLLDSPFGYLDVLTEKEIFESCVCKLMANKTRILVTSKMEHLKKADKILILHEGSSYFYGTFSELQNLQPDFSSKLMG
How it was run: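 Read-out is ΔTagg: the aggregation temperature, taken at the inflection of the light-scattering curve, less the average of DMSO control wells. Recombinant NBD1 (0.2 mg/ml, pH7.6 buffer containing 2 mM ATP) with test compound was heated at 1° C. per minute up to 70° C.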

Compound: [2H]C([2H])([2H])C1(c2cccc(CC(C)C(=O)O)c2)CCCC(C)(C)CS(=O)(=O)CCc2c(c(F)cc3[nH]ccc23)Oc2ccc(F)c(c2)-c2nc1nn2C (single isomer, unassigned) [Compound 10B, 3-[3-[22,28-difluoro-3,10,10-trimethyl-12,12-dioxo-6-(trideuteriomethyl)-24-oxa-12lambda6-thia-3,4,19,30-tetrazapentacyclo[23.3.1.12,5.015,23.016,20]triaconta-1(29),2(30),4,15,17,20,22,25,27-nonaen-6-yl]phenyl]-2-methyl-propanoic Acid]
- TECC (AUC, 10 μM) (CFTR): A (a TECC value less than 12 is marked “A”)
- DSLS 3D (100 μM ΔT) (NBD1): B (a value above 5 °C and less than or equal to 10 °C is marked “B”)

Compound: CC(Cc1cccc(C2(C)CCC(=O)C(C)(C)CS(=O)(=O)CCc3c(c(F)cc4[nH]ccc34)Oc3ccc(F)c(c3)-c3nc2nn3C)c1)C(=O)O (single isomer, unassigned) [Compound 11A, 3-[3-[22,28-difluoro-3,6,10,10-tetramethyl-9,12,12-trioxo-24-oxa-12lambda6-thia-3,4,19,30-tetrazapentacyclo[23.3.1.12,5.015,23.016,20]triaconta-1(29),2(30),4,15,17,20,22,25,27-nonaen-6-yl]phenyl]-2-methyl-propanoic Acid]
- TECC (AUC, 10 μM) (CFTR): C (a value between 20 and 80 is marked “C”)
- DSLS 3D (100 μM ΔT) (NBD1): C (a value greater than 10 °C and less than or equal to 25 °C is marked “C”)

Compound: CC(Cc1cccc(C2(C)CCC(=O)C(C)(C)CS(=O)(=O)CCc3c(c(F)cc4[nH]ccc34)Oc3ccc(F)c(c3)-c3nc2nn3C)c1)C(=O)O (single isomer, unassigned) [Compound 11B, 3-[3-[22,28-difluoro-3,6,10,10-tetramethyl-9,12,12-trioxo-24-oxa-12lambda6-thia-3,4,19,30-tetrazapentacyclo[23.3.1.12,5.015,23.016,20]triaconta-1(29),2(30),4,15,17,20,22,25,27-nonaen-6-yl]phenyl]-2-methyl-propanoic Acid]
- TECC (AUC, 10 μM) (CFTR): A (a TECC value less than 12 is marked “A”)
- DSLS 3D (100 μM ΔT) (NBD1): A (an ΔTagg value less than or equal to 5 °C is marked “A”)

- TECC (AUC, 10 μM) (CFTR): B (a value between 12-20 is marked “B”)
Compound: Cn1nc2nc1-c1cc(ccc1F)Oc1c(F)cc3[nH]ccc3c1CCS(=O)(=O)CC1(CCCC2(C)c2cccc(CCC(=O)O)c2)CC1 (single isomer, unassigned) [Compound 12A, 3-[3-(22,28-difluoro-3,6-dimethyl-12,12-dioxo-spiro[24-oxa-12lambda6-thia-3,4,19,30-tetrazapentacyclo[23.3.1.12,5.015,23.016,20]triaconta-1(29),2(30),4,15,17,20,22,25,27-nonaene-10,1′-cyclopropane]-6-yl)phenyl]propanoic Acid]
- DSLS 3D (100 μM ΔT) (NBD1): C (a value greater than 10 °C and less than or equal to 25 °C is marked “C”)

Compound: Cn1nc2nc1-c1cc(ccc1F)Oc1c(F)cc3[nH]ccc3c1CCS(=O)(=O)CC1(CCCC2(C)c2cccc(CCC(=O)O)c2)CC1 (single isomer, unassigned) [Compound 12B, 3-[3-(22,28-difluoro-3,6-dimethyl-12,12-dioxo-spiro[24-oxa-12lambda6-thia-3,4,19,30-tetrazapentacyclo[23.3.1.12,5.015,23.016,20]triaconta-1(29),2(30),4,15,17,20,22,25,27-nonaene-10,1′-cyclopropane]-6-yl)phenyl]propanoic acid]
- TECC (AUC, 10 μM) (CFTR): C (a value between 20 and 80 is marked “C”)
- DSLS 3D (100 μM ΔT) (NBD1): A (an ΔTagg value less than or equal to 5 °C is marked “A”)

- TECC (AUC, 10 μM) (CFTR): B (a value between 12-20 is marked “B”)
Compound: CC(Cc1cccc(C2(C)CCCC3(CC3)CS(=O)(=O)CCc3c(c(F)cc4[nH]ccc34)Oc3ccc(F)c(c3)-c3nc2nn3C)c1)C(=O)O (single isomer, unassigned) [Compound 13A, 3-[3-(22,28-difluoro-3,6-dimethyl-12,12-dioxo-spiro[24-oxa-12lambda6-thia-3,4,19,30-tetrazapentacyclo[23.3.1.12,5.015,23.016,20]triaconta-1(29),2(30),4,15,17,20,22,25,27-nonaene-10,1′-cyclopropane]-6-yl)phenyl]-2-methyl-propanic Acid]
- DSLS 3D (100 μM ΔT) (NBD1): C (a value greater than 10 °C and less than or equal to 25 °C is marked “C”)

Compound: CC(Cc1cccc(C2(C)CCCC3(CC3)CS(=O)(=O)CCc3c(c(F)cc4[nH]ccc34)Oc3ccc(F)c(c3)-c3nc2nn3C)c1)C(=O)O (single isomer, unassigned) [Compound 13B, 3-[3-(22,28-difluoro-3,6-dimethyl-12,12-dioxo-spiro[24-oxa-12lambda6-thia-3,4,19,30-tetrazapentacyclo[23.3.1.12,5.015,23.016,20]triaconta-1(29),2(30),4,15,17,20,22,25,27-nonaene-10,1′-cyclopropane]-6-yl)phenyl]-2-methyl-propanic Acid]
- TECC (AUC, 10 μM) (CFTR): C (a value between 20 and 80 is marked “C”)
- DSLS 3D (100 μM ΔT) (NBD1): A (an ΔTagg value less than or equal to 5 °C is marked “A”)

Compound: [2H]C([2H])([2H])C1(c2cccc(/C=C/C(=O)O)c2)CCCC(C)(C)CS(=O)(=O)CCc2c(c(F)cc3[nH]ccc23)Oc2ccc(F)c(c2)-c2nc1nn2C (single isomer, unassigned) [Compound 15A, (E)-3-[3-[22,28-difluoro-3,10,10-trimethyl-12,12-dioxo-6-(trideuteriomethyl)-24-oxa-12lambda6-thia-3,4,19,30-tetrazapentacyclo[23.3.1.12,5.015,23.016,20]triaconta-1(29),2(30),4,15,17,20,22,25,27-nonaen-6-yl]phenyl]prop-2-enoic Acid]
- TECC (AUC, 10 μM) (CFTR): A (a TECC value less than 12 is marked “A”)
- DSLS 3D (100 μM ΔT) (NBD1): C (a value greater than 10 °C and less than or equal to 25 °C is marked “C”)

Compound: [2H]C([2H])([2H])C1(c2cccc(/C=C/C(=O)O)c2)CCCC(C)(C)CS(=O)(=O)CCc2c(c(F)cc3[nH]ccc23)Oc2ccc(F)c(c2)-c2nc1nn2C (single isomer, unassigned) [Compound 15B, (E)-3-[3-[22,28-difluoro-3,10,10-trimethyl-12,12-dioxo-6-(trideuteriomethyl)-24-oxa-12lambda6-thia-3,4,19,30-tetrazapentacyclo[23.3.1.12,5.015,23.016,20]triaconta-1(29),2(30),4,15,17,20,22,25,27-nonaen-6-yl]phenyl]prop-2-enoic Acid]
- TECC (AUC, 10 μM) (CFTR): A (a TECC value less than 12 is marked “A”)
- DSLS 3D (100 μM ΔT) (NBD1): B (a value above 5 °C and less than or equal to 10 °C is marked “B”)

Compound: [2H]C([2H])([2H])C1(c2cccc(/C=C(\C)C(=O)O)c2)CCCC(C)(C)CS(=O)(=O)CCc2c(c(F)cc3[nH]ccc23)Oc2ccc(F)c(c2)-c2nc1nn2C (single isomer, unassigned) [Compound 16A, (E)-3-[3-[22,28-difluoro-3,10,10-trimethyl-12,12-dioxo-6-(trideuteriomethyl)-24-oxa-12lambda6-thia-3,4,19,30-tetrazapentacyclo[23.3.1.12,5.015,23.016,20]triaconta-1(29),2(30),4,15,17,20,22,25,27-nonaen-6-yl]phenyl]-2-methyl-prop-2-enoic acid]
- TECC (AUC, 10 μM) (CFTR): A (a TECC value less than 12 is marked “A”)
- DSLS 3D (100 μM ΔT) (NBD1): A (an ΔTagg value less than or equal to 5 °C is marked “A”)

Compound: [2H]C([2H])([2H])C1(c2cccc(/C=C(\C)C(=O)O)c2)CCCC(C)(C)CS(=O)(=O)CCc2c(c(F)cc3[nH]ccc23)Oc2ccc(F)c(c2)-c2nc1nn2C (single isomer, unassigned) [Compound 16B, (E)-3-[3-[22,28-difluoro-3,10,10-trimethyl-12,12-dioxo-6-(trideuteriomethyl)-24-oxa-12lambda6-thia-3,4,19,30-tetrazapentacyclo[23.3.1.12,5.015,23.016,20]triaconta-1(29),2(30),4,15,17,20,22,25,27-nonaen-6-yl]phenyl]-2-methyl-prop-2-enoic acid]
- TECC (AUC, 10 μM) (CFTR): A (a TECC value less than 12 is marked “A”)
- DSLS 3D (100 μM ΔT) (NBD1): C (a value greater than 10 °C and less than or equal to 25 °C is marked “C”)

Compound: C/C(=C\c1cc(F)cc(C2(C)CCCC(C)(C)CS(=O)(=O)CCc3c(c(F)c(F)c4[nH]ccc34)Oc3ccc(F)c(c3)-c3nc2nn3C)c1)C(=O)O (single isomer, unassigned) [Compound 17A, (E)-3-(3-fluoro-5-((Z)-26,46,47-trifluoro-11,9,9,13-tetramethyl-7,7-dioxido-11H,41H-3-oxa-7-thia-4(5,4)-indola-1(5,3)-triazola-2(1,3)-benzenacyclotridecaphane-13-yl)phenyl)-2-methylacrylic acid]
- TECC (AUC, 10 μM) (CFTR): A (a TECC value less than 12 is marked “A”)
- DSLS 3D (100 μM ΔT) (NBD1): B (a value above 5 °C and less than or equal to 10 °C is marked “B”)

Compound: C/C(=C\c1cc(F)cc(C2(C)CCCC(C)(C)CS(=O)(=O)CCc3c(c(F)c(F)c4[nH]ccc34)Oc3ccc(F)c(c3)-c3nc2nn3C)c1)C(=O)O (single isomer, unassigned) [Compound 17B, (E)-3-(3-fluoro-5-((Z)-26,46,47-trifluoro-11,9,9,13-tetramethyl-7,7-dioxido-1I1H,41H-3-oxa-7-thia-4(5,4)-indola-1(5,3)-triazola-2(1,3)-benzenacyclotridecaphane-13-yl)phenyl)-2-methylacrylic acid]
- TECC (AUC, 10 μM) (CFTR): A (a TECC value less than 12 is marked “A”)
- DSLS 3D (100 μM ΔT) (NBD1): C (a value greater than 10 °C and less than or equal to 25 °C is marked “C”)
